From patent publication US20240417403A1, “CRYSTALLINE FORMS OF QUINAZOLINE DERIVATIVES, PREPARATION, COMPOSITION AND USE THEREOF” (Hoffmann-La Roche Inc., priority 2021, published 2024)
Counter-ions that a name gives are not always drawn.

Legend:
Type in all cases: physicochemical
Hygroscopicity by DVS = conditions: 80% RH, 25° C.
Procedure: DVS is measured via a SMS (Surface Measurement Systems) DVS Intrinsic. The relative humidity at 25° C. is calibrated against deliquescence point of LiCl, Mg(NO3)2 and KCl.
DVS isotherm plot was collected at 25° C. to investigate the selected solid forms stability as a function of humidity. Compared with amorphous freebase, the hygroscopicity of Freebase Type B, Fumarate Type A, Fumarate Type B and Fumarate Type E was lower under 80% RH/25° C.

[1] = Kinetic solubility in FaSSIF; conditions: 37° C.
Procedure: (§1) An Agilent 1260 HPLC instrument was utilized and detailed chromatographic conditions for purity and solubility analysis were listed in Table 6.
Kinetic solubility of amorphous freebase and Fumarate Type B/E was measured in FaSSIF to evaluate the solubility. […] After centrifugation, supernatants were collected for HPLC tests.

[2] = Equilibrium solubility in pH 4.5 buffer; conditions: 37° C., stirred 24 hours
Procedure: as §1
About 5˜10 mg of solids were suspended in pH 4.5 buffer to get a mixture. The suspensions were stirred for 24 hours, followed by centrifugation and filtration to obtain supernatants for HPLC test.

[3] = Angle of repose (flowability)
Excerpt: Form the angle of repose on a fixed base with a retaining lip to retain a layer of powder on the base. Carefully build up a symmetrical cone of powder. Determine the angle of repose by measuring the height (h) and base radius (r) of the cone of powder and calculating the angle of repose a from the following equation α=tan^−1(h/r).
(§2) The results of amorphous freebase, Freebase Type F, Fumarate Type B and Fumarate Type E for flowability and compressibility were summarized in Table 30. Generally, powders with smaller Karl index would show better compressibility and flowability. And powders with smaller angle of repose would show better flowability.

[4] = Equilibrium solubility in pH 6.8 buffer; conditions: 37° C., stirred 24 hours
Procedure: as §1
About 5˜10 mg of solids were suspended in pH 6.8 buffer to get a mixture. The suspensions were stirred for 24 hours, followed by centrifugation and filtration to obtain supernatants for HPLC test.

[5] = Bulk density, tap density and Carr index (flowability and compressibility); conditions: for Carr index: (ρ1−ρ0)/ρ1; for Tapped density: tapped 200 times
Procedure: Bulk density was determined by adding appropriate amount (m) of material into a 5 mL graduate cylinder and recording its apparent volume (v0). The bulk density was obtained by dividing the amount of material by its apparent volume of the unsettled material (ρ0=m/v0). For tap density, the cylinder was then tapped for 200 times. The tap density was then calculated by dividing the amount of material by its final tapped volume (ρ1=m/v1). Carr index=(ρ1−ρ0)/ρ1.
as §2

[6] = Equilibrium solubility in H2O; conditions: 37° C., stirred 24 hours
Procedure: as §1
About 5˜10 mg of solids were suspended in H2O to get a mixture. The suspensions were stirred for 24 hours, followed by centrifugation and filtration to obtain supernatants for HPLC test.

[7] = Mechanical stability (XRPD form change after grinding and tableting)
Procedure: Mechanical stability of the solid forms was evaluated by monitoring the XRPD form change after grinding (˜5 min) and tableting (˜234 Mpa).

[8] = TGA and DSC/mDSC thermal analysis (characterization of forms)
Procedure: In salt screening and evaluation and in polymorph study, TGA was performed using a TA Q500, TA Q5000 or Discovery 5500 TGA from TA Instruments. DSC or mDSC was performed using a TA Q200/Q2000 or Discovery 2500 DSC from TA Instruments.

[9] = Contact angle against water (wettability)
Procedure: The wettability of the solid forms was evaluated by the contact angle against water.

[10] = Solid state stability, 40° C./75% RH/open for 1 month (XRPD, HPLC purity); conditions: for Purity/Initial by HPLC area % / Form Change: 40° C., 75% RH, open; for Form Change: by XRPD; for Purity change by HPLC (chemical stability) compared with amorphous freebase: 40° C./75% RH; for Solid form change by XRPD (physical stability): 40° C./75% RH/open
Procedure: as §1
To evaluate the solid state stability of the selected forms (amorphous freebase, Freebase Type F, Fumarate Type A and Fumarate Type B) samples were stored under 40° C./75% RH/open for 1 month. Stability samples were characterized by XRPD to check any solid form change and by HPLC to check purity change.

[11] = crystalline salts, listed as HCl salt Type A
[12] = crystalline salts, listed as HCl salt Type B

SMILES: COc1ccc2ncnc(Nc3ccc(Oc4cc5ncnn5cn4)c(C)c3)c2c1O[C@@H]1CCN(C)CC1(F)F [Fumarate Type E, (R)-N-(4-([1,2,4]triazolo[1,5-c]pyrimidin-7-yloxy)-3-methylphenyl)-5-((3,3-difluoro-1-methylpiperidin-4-yl)oxy)-6-methoxyquinazolin-4-amine]
- Weight change at 80% RH/25° C. by DVS (Hygroscopicity by DVS): 2.1%
- Solubility in FaSSIF ([1]; timepoint 1 h): ≥0.36 mg/mL
- Solubility in FaSSIF ([1]; timepoint 2 h): ≥0.36 mg/mL
- Solubility in FaSSIF ([1]; timepoint 24 h): ≥0.36 mg/mL
- Solubility in pH 4.5 buffer [2]: 1.3 mg/mL
- Angle of repose [3]: 38.3°
- Solubility in pH 6.8 buffer [4]: 0.92 mg/mL
- Bulk density [5]: 0.30 g/mL
- Carr index [5]: 41.7%
- Tapped density [5]: 0.51 g/mL
- Solubility in H2O [6]: ≥5.0 mg/mL
- XRPD form change after grinding ([7]; grinding ~5 min): No
- XRPD form change after tableting ([7]; tableting ~234 Mpa): No
- TGA weight loss (150° C., %) ([8]; crystalline salts): 9.4%
- TGA weight loss (%, temp.) ([8]; fumarate forms, to 150° C.): 9.4 (to 150° C.) %

SMILES: COc1ccc2ncnc(Nc3ccc(Oc4cc5ncnn5cn4)c(C)c3)c2c1O[C@@H]1CCN(C)CC1(F)F [Amorphous Fumarate, (R)-N-(4-([1,2,4]triazolo[1,5-c]pyrimidin-7-yloxy)-3-methylphenyl)-5-((3,3-difluoro-1-methylpiperidin-4-yl)oxy)-6-methoxyquinazolin-4-amine]
- TGA weight loss (%, temp.) ([8]; fumarate forms, to 150° C.): 3.6 (to 150° C.) %

SMILES: COc1ccc2ncnc(Nc3ccc(Oc4cc5ncnn5cn4)c(C)c3)c2c1O[C@@H]1CCN(C)CC1(F)F [L-tartrate Type A, (R)-N-(4-([1,2,4]triazolo[1,5-c]pyrimidin-7-yloxy)-3-methylphenyl)-5-((3,3-difluoro-1-methylpiperidin-4-yl)oxy)-6-methoxyquinazolin-4-amine]
- TGA weight loss (150° C., %) ([8]; crystalline salts): 3.7%

SMILES: COc1ccc2ncnc(Nc3ccc(Oc4cc5ncnn5cn4)c(C)c3)c2c1O[C@@H]1CCN(C)CC1(F)F [HCl Salt Type A, (R)-N-(4-([1,2,4]triazolo[1,5-c]pyrimidin-7-yloxy)-3-methylphenyl)-5-((3,3-difluoro-1-methylpiperidin-4-yl)oxy)-6-methoxyquinazolin-4-amine]
- TGA weight loss (150° C., %) [8, 11]: 8.8%
- DSC endotherm (° C., peak) [8, 11]: 110.0 °C

SMILES: COc1ccc2ncnc(Nc3ccc(Oc4cc5ncnn5cn4)c(C)c3)c2c1O[C@@H]1CCN(C)CC1(F)F [Phosphate Type A, (R)-N-(4-([1,2,4]triazolo[1,5-c]pyrimidin-7-yloxy)-3-methylphenyl)-5-((3,3-difluoro-1-methylpiperidin-4-yl)oxy)-6-methoxyquinazolin-4-amine]
- TGA weight loss (150° C., %) ([8]; crystalline salts): 9.5%

SMILES: COc1ccc2ncnc(Nc3ccc(Oc4cc5ncnn5cn4)c(C)c3)c2c1O[C@@H]1CCN(C)CC1(F)F [Freebase Type A, (R)-N-(4-([1,2,4]triazolo[1,5-c]pyrimidin-7-yloxy)-3-methylphenyl)-5-((3,3-difluoro-1-methylpiperidin-4-yl)oxy)-6-methoxyquinazolin-4-amine]
- DSC endotherm (° C., peak) ([8]; free base forms): 71.3 °C
- TGA weight loss (%, temp.) ([8]; free base forms, to 140° C.): 9.9 (to 140° C.) %

SMILES: COc1ccc2ncnc(Nc3ccc(Oc4cc5ncnn5cn4)c(C)c3)c2c1O[C@@H]1CCN(C)CC1(F)F [Mesylate Type A, (R)-N-(4-([1,2,4]triazolo[1,5-c]pyrimidin-7-yloxy)-3-methylphenyl)-5-((3,3-difluoro-1-methylpiperidin-4-yl)oxy)-6-methoxyquinazolin-4-amine]
- TGA weight loss (150° C., %) ([8]; crystalline salts): 10.2%
- DSC endotherm (° C., peak) ([8]; crystalline salts): 65.1 °C

SMILES: COc1ccc2ncnc(Nc3ccc(Oc4cc5ncnn5cn4)c(C)c3)c2c1O[C@@H]1CCN(C)CC1(F)F [Fumarate Type B, (R)-N-(4-([1,2,4]triazolo[1,5-c]pyrimidin-7-yloxy)-3-methylphenyl)-5-((3,3-difluoro-1-methylpiperidin-4-yl)oxy)-6-methoxyquinazolin-4-amine]
- Weight change at 80% RH/25° C. by DVS (Hygroscopicity by DVS): 2.1%
- Solubility in FaSSIF ([1]; timepoint 1 h): ≥0.39 mg/mL
- Solubility in FaSSIF ([1]; timepoint 2 h): ≥0.39 mg/mL
- Solubility in FaSSIF ([1]; timepoint 24 h): ≥0.39 mg/mL
- Solubility in pH 4.5 buffer [2]: 2.3 mg/mL
- Angle of repose [3]: 26.6°
- Solubility in pH 6.8 buffer [4]: 0.90 mg/mL
- Contact angle [9]: 29.0°
- Bulk density [5]: 0.36 g/mL
- Carr index [5]: 30.4%
- Tapped density [5]: 0.52 g/mL
- Solubility in H2O [6]: ≥5.2 mg/mL
- Purity/Initial by HPLC area % [10]: 99.6%
- Form Change [10]: No
- Purity change by HPLC (chemical stability) compared with amorphous freebase [10]: lower purity change
- Solid form change by XRPD (physical stability) [10]: no form change
- TGA weight loss (150° C., %) ([8]; crystalline salts): 4.9%
- TGA weight loss (%, temp.) ([8]; fumarate forms, to 150° C.): 4.9 (to 150° C.) %

SMILES: COc1ccc2ncnc(Nc3ccc(Oc4cc5ncnn5cn4)c(C)c3)c2c1O[C@@H]1CCN(C)CC1(F)F [Freebase Type G, (R)-N-(4-([1,2,4]triazolo[1,5-c]pyrimidin-7-yloxy)-3-methylphenyl)-5-((3,3-difluoro-1-methylpiperidin-4-yl)oxy)-6-methoxyquinazolin-4-amine]
- TGA weight loss (%, temp.) ([8]; free base forms, to 70° C.): 7.3 (to 70° C.) %

SMILES: COc1ccc2ncnc(Nc3ccc(Oc4cc5ncnn5cn4)c(C)c3)c2c1O[C@@H]1CCN(C)CC1(F)F [HCl Salt Type B, (R)-N-(4-([1,2,4]triazolo[1,5-c]pyrimidin-7-yloxy)-3-methylphenyl)-5-((3,3-difluoro-1-methylpiperidin-4-yl)oxy)-6-methoxyquinazolin-4-amine]
- TGA weight loss (150° C., %) [8, 12]: 2.3%
- DSC endotherm (° C., peak) [8, 12]: 241.7 °C

SMILES: COc1ccc2ncnc(Nc3ccc(Oc4cc5ncnn5cn4)c(C)c3)c2c1O[C@@H]1CCN(C)CC1(F)F [Adipate Type A, (R)-N-(4-([1,2,4]triazolo[1,5-c]pyrimidin-7-yloxy)-3-methylphenyl)-5-((3,3-difluoro-1-methylpiperidin-4-yl)oxy)-6-methoxyquinazolin-4-amine]
- TGA weight loss (150° C., %) ([8]; crystalline salts): 3.0%
- DSC endotherm (° C., peak) ([8]; crystalline salts): 106.7 °C

SMILES: COc1ccc2ncnc(Nc3ccc(Oc4cc5ncnn5cn4)c(C)c3)c2c1O[C@@H]1CCN(C)CC1(F)F [Mesylate Type B, (R)-N-(4-([1,2,4]triazolo[1,5-c]pyrimidin-7-yloxy)-3-methylphenyl)-5-((3,3-difluoro-1-methylpiperidin-4-yl)oxy)-6-methoxyquinazolin-4-amine]
- TGA weight loss (150° C., %) ([8]; crystalline salts): 7.6%
- DSC endotherm (° C., peak) ([8]; crystalline salts): 63.4 °C

SMILES: COc1ccc2ncnc(Nc3ccc(Oc4cc5ncnn5cn4)c(C)c3)c2c1O[C@@H]1CCN(C)CC1(F)F [Freebase Type C, (R)-N-(4-([1,2,4]triazolo[1,5-c]pyrimidin-7-yloxy)-3-methylphenyl)-5-((3,3-difluoro-1-methylpiperidin-4-yl)oxy)-6-methoxyquinazolin-4-amine]
- TGA weight loss (%, temp.) ([8]; free base forms, to 150° C.): 1.5 (to 150° C.) %

SMILES: COc1ccc2ncnc(Nc3ccc(Oc4cc5ncnn5cn4)c(C)c3)c2c1O[C@@H]1CCN(C)CC1(F)F [Freebase Type F, (R)-N-(4-([1,2,4]triazolo[1,5-c]pyrimidin-7-yloxy)-3-methylphenyl)-5-((3,3-difluoro-1-methylpiperidin-4-yl)oxy)-6-methoxyquinazolin-4-amine]
- Angle of repose [3]: 35.8°
- Bulk density [5]: 0.19 g/mL
- Carr index [5]: 31.9%
- Tapped density [5]: 0.28 g/mL
- Purity/Initial by HPLC area % [10]: 100.3%
- Form Change [10]: No
- Purity change by HPLC (chemical stability) compared with amorphous freebase [10]: lower purity change
- Solid form change by XRPD (physical stability) [10]: no form change
- TGA weight loss (%, temp.) ([8]; free base forms, to 70° C.): 5.7 (to 70° C.) %
